US6660742B2, “Compositions and methods of the use thereof achiral analogues of CC-1065 and the duocarmycins” (priority 2000, dated 2003)

Tests used:
[1] = test system: panel of 60 human cancer cell lines; test: NCI in-vitro cytotoxicity screen, whole panel; format: cell-based
[2] = favoring the natural (+)-isomer; cited from earlier work
L1210 leukemia = details: carzelesin 400 μg/kg, adozelesin 100 μg/kg; cited from earlier work
melanoma = details: phase I clinical trial; cited from earlier work
[3] = mice; therapeutic doses; cited from earlier work

Description for BT-549: (§1) The compounds of this invention were also tested against the panel of 60 human cancer cell lines at the National Cancer Institute, Bethesda, Md. (44). The cytrotoxicity studies were conducted using a 48 hour exposure, and measuring the optical density of sulforhodamide B-derived color.
Description for CCRF-CEM: (§2) The compounds of this invention were also tested against the panel of 60 human cancer cell lines at the National Cancer Institute, Bethesda, Md. […] The cytrotoxicity studies were conducted using a 48 hour exposure, and measuring the optical density of sulforhodamide B-derived color.
Description for HS 578T: as §1
Description for HT29: as §2
Description for K-562: as §2
Description for LOX IMVI: as §1
Description for MOLT-4: as §2
Description for NCI-H23: as §2
Description for OVCAR-8: as §1
Description for SF-268: as §1
Description for SR: as §2
Description for TK-10: as §2

For `COc1cc2cc(C(=O)Nc3cc(O)ccc3CCCl)[nH]c2c(OC)c1OC` [Compound 3, 4-(2-Chloroethyl)-3-(5,6,7-trimethoxyindole-2-carboxamino)phenol], the range of activity ([1]; 48 hour exposure) was “micromolar range”, the “activity against leukemia cells” value ([1]; leukemia cells) was “none of these compounds showed much activity” and the “activity against melanoma cells” value ([1]; melanoma cells) was “active”. For the same molecule, the “activity against solid tumors cells” value ([1]; solid tumors cells) was “strong activity”, the CC50 (CCRF-CEM) was over 100 µM and the CC50 (K-562) was over 100 µM. It also gave a CC50 (MOLT-4) of over 100 µM, a CC50 (SR) of over 100 µM and a CC50 (NCI-H23) of over 100 µM. It also gave a CC50 (NCI-H322M) of over 100 µM, a GI50 (NCI-H322M) of 2810 nM and a CC50 (HT29) of over 100 µM. It also gave a CC50 (SF-268) of over 100 µM, a CC50 (LOX IMVI) of over 100 µM and a CC50 (OVCAR-8) of over 100 µM. It also gave a CC50 (TK-10) of 23.5 µM, a CC50 (HS 578T) of over 100 µM and a CC50 (BT-549) of over 100 µM.
For CPI-In-In, the “difference in cytotoxicity between enantiomers” value [2] is given as “about 250 fold”.
For `Cc1c[nH]c2c1[C@@]13C[C@@H]1CN(C(=O)c1cc4cc(NC(=O)c5cc6ccccc6o5)ccc4[nH]1)C3=CC2=O` [adozelesin], the ILS (L1210 leukemia) is given as 90±11%, the survival (L1210 leukemia) is given as 0/6 and the clinical response (melanoma) is given as “partial response”. The “delayed lethality / delayed toxicity” value [3] was “devoid of the delayed toxicity problem”.
